Source: patent US12098356B2, “Effects of space travel on human brain cells” (EMULATE, Inc., priority 2017, dated 2024)

Tested on: glutamatergic neurons on the Brain-Chip
Assay: Calcium imaging (Fluo-4 AM) of neuronal activity on the Brain-Chip
Assay type: cell-based, human
Details: NMDA and AMPA receptor inhibition (DAP5 and CNQX respectively), compared to control without inhibitors
From the text: FIG. 30A Spontaneous activity was studied by means of calcium imaging, enabling the investigation of neuronal activity of single cells and the network as a whole. Fluo-4 AM, a calcium sensitive fluorescent dye, was loaded onto the cells, and intracellular calcium fluctuations were monitored over time using high-speed imaging. […] FIG. 38A-C Pharmacological Targeting of the Glutamatergic Neurons in the Brain-Chip. […] Scale bars=200 μm. […] FIG. 38A-C Pharmacological Targeting of the Glutamatergic Neurons in the Brain-Chip. […] Scale bars=200 μm.

## N#Cc1cc2c(cc1[N+](=O)[O-])=NC(=O)C(=O)N=2 [CNQX, 6-cyano-7-nitroquinoxaline-2,3-dione]
  effect on percentage of active neurons: reduced the percentage of active neurons
